Experimental data: patent US4459294A, “Phosphoric and thiophosphoric esters of 5(3)-hydroxypyrazoles exerting an insecticidal action” (priority 1977, dated 1984)

Tests used:
Macrosiphum euphorbiae = test: Biological activity on Macrosiphum euphorbiae (aphides); format: in vivo; parameters: tested at 0.01 permill; details: 0.01 permill.; 24 hours after treatment
Experimental: Biological activity on Macrosiphum euphorbiae (aphides)
Small potato plants grown in pots were infested with adult female aphides and, after several hours, were sprinkled with an aqueous dispersion of the products under examination.
The percentage death rate was determined 24 hours after treatment (untreated plants=0).

Pieris brassicae = test: Biological activity on Pieris brassicae (Lepitoptera), 5-day old larvae; format: in vivo; details: 0.1 permill.; 48 hours after treatment
Experimental: Biological activity on Pieris brassicae (Lepitoptera)
Cut cauliflower leaves were sprinkled with an aqueous dispersion of the products under examination. After drying, the leaves were infested with 5-day old larvae. The percentage death rate of the larvae (untreated leaves=0) was determined 48 hours after treatment.

Culex pipiens larvae = test: Biological activity on Culex pipiens (diptera) larvae; format: in vivo; details: 24 hours after treatment, read-out: percentage of reduction of the infestation (percentage death rate), Culex larvae
Experimental: Biological activity on Culex pipiens (diptera) larvae
Into glasses containing an aqueous dispersion of the products under examination, were introduced third and fourth age mosquito larvae. The percentage death rate of the larvae (glasses containing pure water=0) was determined 24 hours after treatment.

Musca domestica = test: Biological activity on Musca domestica (Diptera), topical application; format: in vivo; details: 0.5 γ/ins, 24 hours after treatment
Experimental: Biological activity on Musca domestica (Diptera)
4-days old adults were treated, by topical application by microsyringe, with an acetonic solution of the products under examination.
The mortality percentage (insects treated with acetone only=0) was determined 24 hours after the treatment.

Tetranychus urticae = test: Biological activity on Tetranychus urticae (Acari) adults; format: in vivo; details: 0.01 permill.; 24 hours after treatment
Experimental: Biological Activity on Tetranychus urticae (Acari) adults
Small bean leaf discs were infected with adult acari and were then sprinkled with an aqueous dispersion of the products under examination. The percentage of mortality was determined 24 hours after the treatment (untreated discs, mortality=0).

[1] = system: Leptinatarsa decomlineata; test: Biological activity on Leptinatarsa decomlineata (Coledptera), 4-day old larvae; format: in vivo; details: 0.1 permill.; 48 hours after treatment
Experimental: Biological activity on Leptinatarsa decomlineata (Coledptera)
Small, pot-grown potato-plants were infested with 4-day old larvae, and then were sprinkled with an aqueous dispersion of the products under examination. The percentage death rate (untreated plants=0) was determined 48 hours after treatment.

Spodoptera littoralis = test: Biological activity on Spodoptera littoralis (Lepidoptera), 5-days old larvae; format: in vivo; details: 0.1 permill.; 48 hours after treatment
Experimental: Biological activity on Spodoptera littoralis (Lepidoptera)
Cut tobacco leaves were sprinkled with an aqueous dispersion of the products under examination. After drying, the leaves were infested with 5-days old larvae. The percentage mortality of the larvae was determined 48 hours after treatment (untreated leaves, mortality=0).

Toxicity by os on rats = details: rat, in vivo, po
Culex pipiens adults = test: Biological activity on Culex pipiens (Diptera): adults; format: in vivo; details: 0.2 g/m^2, 24 hours after beginning of treatment, read-out: percentage of reduction of the infestation (mortality percentage), Culex ad.
Experimental: Biological activity on Culex pipiens (Diptera): adults
Whatman n°1 paper rectangles were treated uniformly with an acetonic solution of the products under examination. After evaporation of the solvent, each treated paper rectangle was used to line the inside wall of a perspex cylinder (model OMS). The paper-lined perspex cylinder was then closed with a net after having introduced into it 2-3 days old adult females. After one hour from the start of the contact, the insects were transferred into a similar cylinder likewise lined with untreated paper, and were fed with a sugary solution.
The mortality percentage (untreated insects=0) was determined 24 hours after the beginning of the treatment.

Blatta orientalis = test: Biological activity on Blatta orientalis (Ortoptera); format: in vivo; details: 0.1 g/m^2, 48 hours after start of treatment, read-out: percentage of reduction of the infestation (percentage mortality), Blatta
Experimental: Biological activity on Blatta orientalis (Ortoptera)
The bottom and side walls of glass beakers were treated uniformly with an acetonic solution of the products under examination. After evaporation of the solvent in each beaker, into the same were then introduced ten, 80-100 days old neanides, whereafter they were closed with a lid of metal netting. After 24 hours from the beginning of the treatment, the insects were transferred into untreated glass beakers, and suitably nourished. The percentage mortality (untreated insects=0) was determined 48 hours after the start of the treatment.

Meloidogyne incognita = test: Biological activity on Meloidogyne incognita (Nematoda); format: in vivo; details: 20 ppm; 21 days after transplanting
Experimental: Biological activity on Meloidogyne incognita (Nematoda)
Aliquot parts of a 1:1 mixture of field soil and sand, infested by Nematoda larvae and eggs, were treated by uniformly mixing same with an aqueous dispersion of the products under examination. The soil was then distributed into plastic pots, and after 5 days into each pot there were transplanted 5 tomato plants about 20 cm high. The survey of the results was carried out 21 days after the transplanting, by observing the roots of the plants extracted from the soil in order to ascertain the degree of infestation by counting the galls that have formed on them. The nematocide activity was expressed as a percentage of reduction of the infestation with respect to the witness plant (small plants transplanted into untreated soil, activity=0).

[2] = system: insects, acari and nematoda; test: Pesticidal activity against insects, acari and nematoda (general statements); format: in vivo
Experimental: The pesticidal activity, verified by the methods described below in Example 12, is recorded below in the following Table 3 in comparison with that of "Pyrazothion".

Row | Compound | percentage of reduction of the infestation (percentage death rate), Macrosiph. E. (Macrosiphum euphorbiae) | percentage of reduction of the infestation (percentage death rate of larvae), Pieris B (Pieris brassicae) | mortality at 0.2 ppm (Culex pipiens larvae) | percentage of reduction of the infestation (mortality percentage), Musca d. (Musca domestica) | percentage of reduction of the infestation (percentage of mortality), Tetran U. (Tetranychus urticae) | percentage of reduction of the infestation (percentage death rate), Leptinot D. [1] | percentage of reduction of the infestation (percentage mortality of larvae), Spodoptera L (Spodoptera littoralis) | LD50 (Toxicity by os on rats) | mortality at 0.2 g/m2 (Culex pipiens adults) | mortality at 0.1 g/m2 (Blatta orientalis) | percentage of reduction of the infestation, Meloidog. I. (Meloidogyne incognita) | activity against Spodoptera, Culex, Musca, Leptinotarsa, Meloidogine incognita ([2]; Spodoptera, Culex, Musca, Leptinotarsa, Meloidogine incognita) | activity against insects, acari and nematoda ([2]; in vivo)
1 | COP(=S)(OC)Oc1cc(Cl)nn1-c1ccccc1 [Compound 1, O,O-dimethyl-0-(1-phenyl-3-chloropyrazol-5-yl) thiophosphate] | 90% | 100% | 100% | 100% | 60% | 100% | 100% | 400 mg/kg | 100% | 100% | 80% | – | –
2 | CCOP(=S)(OC)Oc1cc(Cl)nn1-c1ccccc1 (stereo not shown) [Compound 37] | 48% | 100% | 100% | 100% | 0% | 100% | 100% | 320 mg/kg | 100% | 100% | 47% | – | –
3 | COP(=S)(OC)Oc1cc(Cl)nn1C [Compound 14] | 96% | 100% | 100% | 100% | 100% | 37% | 82% | 560 mg/kg | 100% | 100% | 41% | – | –
4 | CCOP(=S)(OC)Oc1cc(Cl)nn1C (stereo not shown) [Compound 23] | 92% | 100% | 100% | 100% | 100% | 100% | 100% | 487 mg/kg | 100% | 100% | 100% | – | –
5 | CCOP(=S)(OCC)Oc1cc(C=C(Cl)Cl)nn1C [Compound 6] | 100% | 100% | 100% | 100% | 100% | 100% | 100% | 175 mg/kg | 76% | 100% | 95% | – | –
6 | CCOP(=S)(OCC)Oc1cc(Cl)nn1C(C)C [Compound 5] | 100% | 100% | 100% | 100% | 100% | 100% | 60% | 22 mg/kg | 100% | 100% | 90% | – | –
7 | CCOP(=S)(OCC)Oc1cc(C)[nH]n1 [Pyrazothion, diethyl-thiophosphoric ester of 3(5)-methyl-5(3)-hydroxypyrazole, reference compound] | 60% | 70% | 0% | 0% | 90% | 0% | 0% | 36 mg/kg | 0% | 20% | 0% | ineffective | does not shown activity
